This is an account of results in patent publication US12503425B2, “Methods of treating or controlling cytotoxic cerebral edema” (Aeromics, Inc., priority 2012, dated 2025).

Data set [1] has as its system cerebral edema. The data set is described as follows: Mouse water toxicity model, brain water content. It counts as in vivo. As to conditions: at 30 minutes. On the procedure:
Mouse Water Toxicity Model-Brain Water Content: Compounds are also tested for the ability to reduce CE in mice exposed to the water shock by examining brain water content. Mice are treated with a water bolus as described above, then sacrificed at 30 minutes. Brain water content is assessed by fresh/dry weight ratio, i.e. the brains are weighed immediately then desiccated in an oven at 100° C. for 24 h and dry weights measured (brain water percentage=[…]).

Data set [2] deals with cerebral edema. The data set is described as follows: Mouse water toxicity model, brain volume by MRI. As to conditions: 0.76 mg/kg, versus no drug.
Method: The first time point at 5.67 min coincides with the scan slice at the middle of the brain during the first post-injection scan. Other time points are placed in a similar manner. The data is fitted to a single exponential equation: V/V0=Vi+dVmax(1−e^(−kt)); • where V/V0=relative brain volume, Vi=initial relative brain volume, dVmax=maximum change in relative brain volume, k=first order rate constant (min^−1), and t=time in minutes.
Mouse Water Toxicity Model-Brain Volume by Magnetic Resonance Imaging (MRI): MRI is used to measure changes in brain volume in response to water shock, using the water toxicity model. As described for the survival and brain water content studies above, mice are injected, IP, with a water bolus alone or water bolus and test compound at 0.76 mg/kg, and changes in brain volume as detected by MRI are monitored. […] This imaging method is found to provide sufficient contrast and resolution to sensitively detect changes in total brain volume in the mouse water toxicity model for cerebral edema. […] The cross sectional area of the brain in each imaging slice is measured by manual region-of-interest selection using ImageJ. Brain volumes are then calculated for each scan by summing the individual cross sectional brain areas and multiplying by the slice thickness (0.7 mm).
A short description of data set [3]: Bioconversion of Compound 5 to Compound 1 in mouse plasma in vitro. It counts as in vitro ADME. To be noted: 20° C.
In data set [4] the test system is middle cerebral artery occlusion (MCAo). Description: Mouse MCAo stroke model, neurological outcome (5 point scale). It counts as in vivo. As to conditions: 5 mg/kg i.p. every three hours. An excerpt: An improvement in neurological outcome is observed for animals given Compound 5. Control animals have an average neurological score of 2.77±0.66, while animals given Compound 5 have an average score of 0.88±0.31 (FIG. 13, inset, P=0.025, n=9 per treatment).

Data set [5] relates to AQP. Description: AQP inhibition cell-based assay (Table 1).

As to `O=C(Nc1cc(C(F)(F)F)cc(C(F)(F)F)c1)c1cc(Cl)ccc1O` [Compound 1], the “detection in plasma samples from mice injected IP with Compound 5” value was “undetectable”. In addition, the “reduction in CE (brain water content)” value in data set [1] (0.76 mg/kg) came to 11.2%. In data set [1] (7.6 mg/kg), the “reduction in CE (brain water content)” value was determined as 15.9%. The “reduction of the rate of CE development” value in data set [2] is listed as 2.5 fold.
On to `O=C(Nc1cc(C(F)(F)F)cc(C(F)(F)F)c1)c1cc(Cl)ccc1OP(=O)(O)O` [Compound 5], for which the “time sufficient to render Compound 5 undetectable” value in data set [3] is reported as “Less than 5 minutes”. In addition, the “progression of neurological state (in words)” value in data set [4] is “did not progress into a state of severe paralysis or death”.
Consider `O=C(Nc1ccccc1)c1ccccc1` [Phenylbenzamide], for which the “AQP inhibition Cell-Based Assay (%)” value in data set [5] turned out to be 4.5%.
